Experimental data reported in US6596700B2, “Methods of treating hepatitis delta virus infection with β-L-2'-deoxy-nucleosides” (priority 2000, dated 2003).
Read-outs that look alike come from different tables or passages of the source.

Experiments:
[1] = test system: hepatitis B virus; test: anti-hepatitis B virus activity in transfected Hep G-2 (2.2.15) cells; type: cell-based
[2] = test system: Hep G-2 (2.2.15) cells; test: cytotoxicity in Hep G-2 (2.2.15) cells; conditions: read-out: Cytotoxicity IC50
[3] = test system: hepatitis B surface antigen; conditions: in vivo; cited from earlier work
[4] = test system: HDV; conditions: chronically infected animals; cited from earlier work
[5] = test system: HDV; conditions: in vivo, cited from earlier work
[6] = test system: HDV; conditions: cited from earlier work
[7] = test system: CFU-GM
[8] = test system: BFU-E; test: human bone marrow clonogenic assay, BFU-E; type: cell-based
[9] = test system: woodchuck hepatitis virus (WHV); test: woodchuck chronic hepatitis model, WHV DNA in serum; type: in vivo, woodchucks (Marmota monax); conditions: for activity compared with 3TC (lamivudine): 3TC 10 mg/kg/day; for ng WHV-DNA per ml serum: orally once a day at 10 mg/kg; for activity in the in vivo model / level to which viral load is reduced: woodchucks chronically infected with WHV
Procedure: The efficacy of L-dA, L-dT and L-dC against hepadnavirus infection in woodchucks (Marmota monax) chronically infected with woodchuck hepatitis virus (WHV) was determined. This animal model of HBV infection is widely accepted and has proven to be useful for the evaluation of antiviral agents directed against HBV. There were 3 animals per drug group, and 4 animals per control. In group 1, the animals received a vehicle control; group 2 received lamivudine (3TC) (10 mg/kg/day); groups 3-6 received L-dA (0.01, 0.1, 1.0, 10 mg/kg/day, respectively); groups 7-10 received L-dT (0.01, 0.1, 1.0, 10 mg/kg/day, respectively); and groups 11-14 received L-dC (0.01, 0.1, 1.0, 10 mg/kg/day). […] Assessment of the activity and toxicity was based on the reduction of WHV DNA in serum: dot-blot, quantative PCR.

[10] = test system: CFU-GM; test: human bone marrow clonogenic assay, CFU-GM; conditions: effect on cell growth
[11] = test system: hepatitis B; conditions: for IC50: single agent, hepatitis B replication in 2.2.15 cells
[12] = test system: HDV; conditions: patients with chronic delta hepatitis; cited from earlier work
[13] = extracellular DNA, read-out: HBV virions EC50
[14] = replicative intermediates (intracellular DNA), read-out: HBV Ri EC50
[15] = day 0, limit of detection 1 ng/ml

SMILES: O=c1[nH]cnc2c1ncn2[C@@H]1C[C@@H](O)[C@H](CO)O1 [β-L-dI, 2′-deoxy-β-L-inosine]
- EC50 [1, 13]: 1000 nM
- EC50 [1, 14]: 1000 nM
- IC50 [2]: > 200000 nM

SMILES: Cc1cn([C@H]2O[C@@H](CO)[C@H](O)[C@H]2F)c(=O)[nH]c1=O [L-FMAU, 2′-fluoro-5-methyl-beta-L-arabinofuranosyluridine]
- level of hepatitis B surface antigen [3]: significantly reduces the level of hepatitis B surface antigen
- inhibition of HDV [4]: potent inhibitor of HDV

SMILES: Cc1ccc(C(=O)Nc2ccc(S(=O)(=O)O)c3cc(S(=O)(=O)O)cc(S(=O)(=O)O)c23)cc1NC(=O)c1cccc(NC(=O)Nc2cccc(C(=O)Nc3cc(C(=O)Nc4ccc(S(=O)(=O)O)c5cc(S(=O)(=O)O)cc(S(=O)(=O)O)c45)ccc3C)c2)c1 [suramin]
- toxicity ([5]; human): too toxic to be acceptable for long term use in humans
- entry of the virion into hepatocytes [6]: blocks the entry of the virion into hepatocytes

SMILES: Nc1nc2c(ncn2COCCO)c(=O)[nH]1 [Acyclovir]
- HDV replication ([6]; in vitro): enhances HDV replication in vitro

SMILES: NC(=O)c1ncn([C@@H]2O[C@H](CO)[C@@H](O)[C@H]2O)n1 [Ribavirin]
- side-effects [5]: severe side-effects
- virological or biochemical parameters [5]: did not significantly affect virological or biochemical parameters

SMILES: Cc1cn([C@@H]2C[C@@H](O)[C@H](CO)O2)c(=O)[nH]c1=O [β-L-dT, 2′-Deoxy-β-L-thymidine]
- CFU-GM [7]: >10 µM
- BFU-E [8]: >10 µM
- activity compared with 3TC (lamivudine) [9]: more active than 3TC
- ng WHV-DNA per ml serum [9, 15]: 423 ng/mL
- ng WHV-DNA per ml serum ([9]; day 1): 45 ng/mL
- ng WHV-DNA per ml serum ([9]; day 3): 14 ng/mL
- ng WHV-DNA per ml serum ([9]; day 7): 6 ng/mL
- ng WHV-DNA per ml serum ([9]; day 14): 1 ng/mL
- viral rebound after withdrawal ([9]; post-treatment): viral rebound is not detected for at least two weeks
- activity in the in vivo model [9]: highly active
- level to which viral load is reduced [9]: undetectable
- EC50 [1, 13]: 50 nM
- EC50 [1, 14]: 50 nM
- IC50 [2]: > 200000 nM

SMILES: Nc1ccn([C@@H]2C[C@@H](O)[C@H](CO)O2)c(=O)n1 [β-L-dC, 2′-Deoxy-β-L-cytidine]
- BFU-E [8]: >10 µM
- activity compared with 3TC (lamivudine) [9]: more active than 3TC
- ng WHV-DNA per ml serum [9, 15]: 426 ng/mL
- ng WHV-DNA per ml serum ([9]; day 1): 123 ng/mL
- ng WHV-DNA per ml serum ([9]; day 3): 62 ng/mL
- ng WHV-DNA per ml serum ([9]; day 7): 46 ng/mL
- ng WHV-DNA per ml serum ([9]; day 14): 20 ng/mL
- activity in the in vivo model [9]: highly active
- level to which viral load is reduced [9]: nearly undetectable
- EC50 [1, 13]: 50 nM
- EC50 [1, 14]: 50 nM
- IC50 [2]: > 200000 nM
- CFU-GM [10]: >10 µM
- % Inhibition ([11]; single agent 0.005 μM): 10%
- % Inhibition ([11]; single agent 0.05 μM): 40%
- % Inhibition ([11]; single agent 0.5 μM): 95%
- IC50 [11]: 60 nM

SMILES: Nc1ncnc2c1ncn2[C@@H]1C[C@@H](O)[C@H](CO)O1 [β-L-dA, 2′-Deoxy-β-L-adenosine]
- BFU-E ([8]; effect on cell growth, human bone marrow clonogenic assay): >10 µM
- activity compared with 3TC (lamivudine) [9]: more active than 3TC
- ng WHV-DNA per ml serum [9, 15]: 436 ng/mL
- ng WHV-DNA per ml serum ([9]; day 1): 369 ng/mL
- ng WHV-DNA per ml serum ([9]; day 3): 140 ng/mL
- ng WHV-DNA per ml serum ([9]; day 7): 102 ng/mL
- ng WHV-DNA per ml serum ([9]; day 14): 74 ng/mL
- activity in the in vivo model [9]: highly active
- level to which viral load is reduced [9]: nearly undetectable
- EC50 [1, 13]: 100 nM
- EC50 [1, 14]: 100 nM
- IC50 [2]: > 200000 nM
- CFU-GM [10]: >10 µM
- % Inhibition ([11]; single agent 0.005 μM): 1%
- % Inhibition ([11]; single agent 0.05 μM): 24%
- % Inhibition ([11]; single agent 0.5 μM): 90%
- IC50 [11]: 90 nM

SMILES: Nc1ccn([C@@H]2CS[C@H](CO)O2)c(=O)n1 [Lamuvidine, β-L-2′,3′-dideoxy-3′-thiacytidine]
- disease activity and HDV-RNA levels [12]: does not improve disease activity or lower HDV-RNA levels

SMILES: O=c1ccn([C@@H]2C[C@@H](O)[C@H](CO)O2)c(=O)[nH]1 [β-L-dU, β-L-2′-deoxyuridine]
- CFU-GM [7]: >10 µM
- BFU-E [8]: >10 µM
- EC50 [1, 13]: 5000 nM
- EC50 [1, 14]: 5000 nM
- IC50 [2]: > 200000 nM
